Laboratory results from US12668845B2, “Methods for predicting drug responsiveness in cancer patients” (Allarity Therapeutics Europe ApS, priority 2018, dated 2026).

What was measured:
NCEB-1 = experiment: Growth inhibition of cell lines treated with 2X-121; format: cell-based; conditions: NCEB1; cell line NCEB-1, origin MCL; read-out: Measured growth inhibition IC50
MDA-MB-231 = experiment: as above; format: cell-based; conditions: Homo sapiens; cell line MDA-MB-231, origin Breast; read-out: Measured growth inhibition IC50
MCF-7 = experiment: as above; format: cell-based; conditions: Homo sapiens, MCF7; cell line MCF-7, origin Breast; read-out: Measured growth inhibition IC50
M14 = experiment: as above; format: cell-based; conditions: Homo sapiens; cell line M14, origin Melanoma; read-out: Measured growth inhibition IC50
[1] = in vivo; cited from earlier work
Toledo = experiment: Growth inhibition of cell lines treated with 2X-121; format: cell-based; conditions: Homo sapiens; cell line Toledo, origin DLBCL (GC); read-out: Measured growth inhibition IC50
HEC-88nu = experiment: as above; format: cell-based; conditions: cell line HEC-88nu, origin Endometrial; read-out: Measured growth inhibition IC50
DU145 = experiment: as above; format: cell-based; conditions: Homo sapiens, DU-145; cell line DU145, origin Prostate; read-out: Measured growth inhibition IC50
MDA-MB-468 = experiment: as above; format: cell-based; conditions: Homo sapiens; cell line MDA-MB-468, origin Breast; read-out: Measured growth inhibition IC50
RL95-2 = experiment: as above; format: cell-based; conditions: Homo sapiens; cell line RL95-2, origin Endometrial; read-out: Measured growth inhibition IC50
MDA-MB-453 = experiment: as above; format: cell-based; conditions: Homo sapiens; cell line MDA-MB-453, origin Breast; read-out: Measured growth inhibition IC50
JVM-13 = experiment: as above; format: cell-based; conditions: JVM13; cell line JVM-13, origin MCL; read-out: Measured growth inhibition IC50
HCC70 = experiment: as above; format: cell-based; conditions: Homo sapiens; cell line HCC70, origin Breast; read-out: Measured growth inhibition IC50
JVM-2 = experiment: as above; format: cell-based; conditions: Homo sapiens; cell line JVM-2, origin MCL; read-out: Measured growth inhibition IC50
Description: (§1) The NCI60 panel of cell lines can be used to determine sensitivity to 2X-121, but it is also possible to use other cell line panels.
(§2) Baseline DNA chip measurements of 61 of the cancer cell lines in Table 1 (excluding M14 HEC-1 ECC-1 SNG-II HEC-88nu SR IM-9 Namalwa MC/CAR U266 JVM-13 NCEB-1 ARH-77) were performed using Affymetrix HG-U133Plus2 arrays and logit normalized. For each array, the logit transformation was performed followed by a Z-transformation to mean zero and SD 1, and correlated to growth inhibition (−log(GI50)). The expression level of each of the genes of Tables 2 and 3 in each cell line was correlated to the growth of those cell lines (log(GI50)) in the presence of 2X-121. The Pearson correlation coefficient was then determined to identify genes positively and negatively correlated to sensitivity to 2X-121. Tables 2 and 3 show the top positively correlated genes (the biomarkers of sensitivity) and negatively correlated genes (the biomarkers of resistance). In particular, genes with a Pearson correlation greater than 0.25 or below −0.25 can be classified as biomarkers of sensitivity or resistance, respectively.

HT-1080 = experiment: as above; format: cell-based; conditions: Homo sapiens; cell line HT-1080, origin Fibrosarcoma; read-out: Measured growth inhibition IC50
Description: as §1, §2

HT = experiment: as above; format: cell-based; conditions: Homo sapiens; cell line HT, origin DLBCL (GC); read-out: Measured growth inhibition IC50
Description: as §1, §2

NCI-H446 = experiment: as above; format: cell-based; conditions: Homo sapiens; cell line NCI-H446, origin SCLC; read-out: Measured growth inhibition IC50
Description: as §1, §2

C3A = experiment: as above; format: cell-based; conditions: Homo sapiens; cell line C3A, origin HCC; read-out: Measured growth inhibition IC50
Description: as §1, §2

O=c1[nH]nc2c3c(cccc13)N=C(CN1Cc3ccccc3C1)N2 [2X-121, 8-(isoindolin-2-ylmethyl)-2,9-dihydro-3H-pyridazino[3,4,5-de]quinazolin-3-one]
IC50 (NCEB-1): 5.3 µM
IC50 (MDA-MB-231): 25 µM
IC50 (MCF-7): 1900 nM
IC50 (M14): 6.7 µM
brain penetration [1]: brain penetrable
IC50 (Toledo): 1600 nM
IC50 (HEC-88nu): 1140 nM
IC50 (DU145): 1800 nM
IC50 (MDA-MB-468): 2500 nM
IC50 (RL95-2): 2130 nM
IC50 (MDA-MB-453): 6.2 µM
IC50 (JVM-13): 7.3 µM
IC50 (HCC70): 9.3 µM
IC50 (JVM-2): 14 µM
IC50 (HT-1080): 830 nM
IC50 (HT): 660 nM
IC50 (NCI-H446): 610 nM
IC50 (C3A): 2540 nM
